Assay results reported in PubChem BioAssay AID276 (DTP/NCI, 2004).
Where “and” joins values, the source holds several entries; their conditions need not be identical. Equal entries are not always repeated. Toxic doses and inconclusive results are not listed. Rule for the calls: active = survival T/C of 150% or more; inactive = T/C below 125% in these data.

System: B6C3F1 mice, Lewis lung carcinoma iv, survival T/C
Test: NCI In Vivo Anticancer Drug Screen. Data for tumor model Lewis Lung Carcinoma (intravenous) in B6C3F1 mice
Conditions: endpoint: median survival time, schedule: Q01DX009 (ip), higher = longer survival
Outline: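 Transplantable tumor in mice; compound treated vs vehicle controls; read-out survival; value = treated/control (T/C).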

[1] = dose: 0.06 mg/kg/injection, vehicle: suspension in saline
[2] = dose: 0.12 mg/kg/injection, vehicle: suspension in saline
[3] = dose: 0.25 mg/kg/injection, vehicle: suspension in saline
[4] = dose: 0.5 mg/kg/injection, vehicle: suspension in saline
[5] = dose: 1.0 mg/kg/injection, vehicle: suspension in saline
[6] = dose: 12.5 mg/kg/injection, vehicle: saline
[7] = dose: 25.0 mg/kg/injection, vehicle: saline
[8] = dose: 50.0 mg/kg/injection, vehicle: saline
[9] = dose: 100.0 mg/kg/injection, vehicle: saline
[10] = dose: 200.0 mg/kg/injection, vehicle: saline
[11] = dose: 25.0 mg/kg/injection, vehicle: saline with Tween-80
[12] = dose: 50.0 mg/kg/injection, vehicle: saline with Tween-80
[13] = dose: 25.0 mg/kg/injection, vehicle: Klucel (hydroxypropylcellulose) (HPC)
[14] = dose: 100.0 mg/kg/injection, vehicle: saline with Tween-80
[15] = dose: 200.0 mg/kg/injection, vehicle: saline with Tween-80
[16] = dose: 6.25 mg/kg/injection, vehicle: saline with Tween-80
[17] = dose: 12.5 mg/kg/injection, vehicle: saline with Tween-80

Measured: T/C

C1CN1c1nc(N2CC2)nc(N2CC2)n1
inactive: [1] 96 % of control | [2] 92 % of control | [3] 101 % of control | [4] 106 % of control | [5] 121 % of control

Cn1/c2cc/c1=C(\c1ccc(S(=O)(=O)O)cc1)c1ccc([n-]1)/C(c1ccc(S(=O)(=O)O)cc1)=c1/cc/c([nH]1)=C(\c1ccc(S(=O)(=O)O)cc1)c1ccc([n-]1)/C=2c1ccc(S(=O)(=O)O)cc1.O.O=S(=O)(O)C(F)(F)F.[Cu+2]
inactive: dose: 6.25 mg/kg/injection, vehicle: saline 109 % of control | [6] 112 % of control | [7] 116 % of control | [8] 112 % of control

CC1(C)OCC2OC=CC(=O)C2O1 (stereo not given)
inactive: [7] 98 % of control | [8] 98 % of control | [9] 105 % of control | [10] 102 % of control | dose: 400.0 mg/kg/injection, vehicle: saline 104 % of control

c1ccc(P(CCNCCP(c2ccccc2)c2ccccc2)c2ccccc2)cc1
inactive: [11] 104 % of control | [12] 97 % of control

C1CC[N-]CC1.[Cl][Pt+2][Cl].[NH-]C1CC1
inactive: dose: 1.56 mg/kg/injection, vehicle: water 106 % of control | dose: 3.12 mg/kg/injection, vehicle: water 110 % of control | dose: 6.25 mg/kg/injection, vehicle: water 107 % of control and 109 % of control | dose: 12.5 mg/kg/injection, vehicle: water 102 % of control and 120 % of control

N/C(=N\OC(=O)Nc1ccc(CSc2ccc(Cl)cc2)o1)c1ccccn1
inactive: [13] 102 % of control | dose: 50.0 mg/kg/injection, vehicle: Klucel (hydroxypropylcellulose) (HPC) 103 % of control | dose: 100.0 mg/kg/injection, vehicle: Klucel (hydroxypropylcellulose) (HPC) 99 % of control | dose: 200.0 mg/kg/injection, vehicle: Klucel (hydroxypropylcellulose) (HPC) 99 % of control

C=COC(=O)C(Cc1ccccc1)NC(=O)OCc1ccccc1 (stereo not given)
inactive: [11] 103 % of control | [12] 112 % of control | [14] 98 % of control | [15] 105 % of control | dose: 400.0 mg/kg/injection, vehicle: saline with Tween-80 94 % of control

Cc1cc(NCCCCCCCCNc2cc(C)nc3cc(N(C)C)ccc23)c2ccc(N(C)C)cc2n1
inactive: dose: 3.12 mg/kg/injection, vehicle: distilled water + Tween-80 + alcohol 102 % of control | dose: 6.25 mg/kg/injection, vehicle: distilled water + Tween-80 + alcohol 102 % of control | dose: 12.5 mg/kg/injection, vehicle: distilled water + Tween-80 + alcohol 109 % of control | dose: 25.0 mg/kg/injection, vehicle: distilled water + Tween-80 + alcohol 111 % of control and 118 % of control

CCOC(=O)C(N)CSC(=O)NC (stereo not given)
inactive: [6] 98 % of control | [7] 103 % of control | [8] 93 % of control | [9] 101 % of control | [10] 109 % of control

C/C=C(\C)c1cc(=O)c2c(C)cc3c(c2o1)C(=O)c1c(O)c(C2CC(C)(N(C)C)C(O)C(C)O2)cc(C2CC(N(C)C)C(O)C(C)O2)c1C3=O (stereo not given)
inactive: dose: 31.25 micrograms/kg/injection, vehicle: saline 98 % of control | dose: 62.5 micrograms/kg/injection, vehicle: saline 101 % of control | dose: 125.0 micrograms/kg/injection, vehicle: saline 101 % of control | dose: 250.0 micrograms/kg/injection, vehicle: saline 98 % of control

O=C(C/C(=N\C(=S)Nc1cc(C(F)(F)F)ccc1Cl)NO)N1CCCC1
inactive: [11] 98 % of control and 101 % of control | [12] 99 % of control and 105 % of control | [14] 101 % of control and 111 % of control | [15] 99 % of control

O=CC=O
inactive: [16] 102 % of control | [17] 116 % of control | [11] 107 % of control | [12] 107 % of control | [14] 95 % of control | [15] 101 % of control

Cc1nc(N)nc(N)c1-c1ccc(Cl)c(Cl)c1
inactive: dose: 0.32 mg/kg/injection, vehicle: saline 97 % of control | dose: 0.63 mg/kg/injection, vehicle: saline 109 % of control | dose: 1.25 mg/kg/injection, vehicle: saline 120 % of control | dose: 2.5 mg/kg/injection, vehicle: saline 113 % of control | dose: 5.0 mg/kg/injection, vehicle: saline 124 % of control | dose: 10.0 mg/kg/injection, vehicle: saline 112 % of control

COC1CC(C)C(OC)C2=CC(=O)C=C(NC(=O)/C(C)=C/C=C\C(C)C(OC(N)=O)/C(C)=C\C(C)C1OC)C2=O (stereo not given)
inactive: dose: 5.0 mg/kg/injection, vehicle: saline + Tween-80 + alcohol 99 % of control | dose: 10.0 mg/kg/injection, vehicle: saline + Tween-80 + alcohol 112 % of control

NC(=O)/C=C/C(=O)c1c(Cl)cccc1Cl
inactive: dose: 0.79 mg/kg/injection, vehicle: saline with Tween-80 111 % of control | dose: 1.56 mg/kg/injection, vehicle: saline with Tween-80 88 % of control | dose: 3.12 mg/kg/injection, vehicle: saline with Tween-80 117 % of control | [16] 103 % of control | [17] 108 % of control

O=C(O)CCCCCCCC(=O)O
inactive: dose: 12.5 mg/kg/injection, vehicle: distilled water + Tween-80 100 % of control | dose: 25.0 mg/kg/injection, vehicle: distilled water + Tween-80 99 % of control | dose: 50.0 mg/kg/injection, vehicle: distilled water + Tween-80 100 % of control | dose: 100.0 mg/kg/injection, vehicle: distilled water + Tween-80 98 % of control

O=C(CN1CCOCC1)Nc1nc(-c2ccc(Cl)cc2)cs1
inactive: dose: 50.0 mg/kg/injection, vehicle: DMSO 91 % of control | dose: 100.0 mg/kg/injection, vehicle: DMSO 92 % of control | dose: 200.0 mg/kg/injection, vehicle: DMSO 103 % of control | dose: 400.0 mg/kg/injection, vehicle: DMSO 100 % of control | dose: 800.0 mg/kg/injection, vehicle: DMSO 95 % of control

CN(C)N=Nc1ccccc1
inactive: dose: 12.5 mg/kg/injection, vehicle: Klucel (hydroxypropylcellulose) (HPC) 108 % of control | [13] 115 % of control

CCC1CC2CN(CCc3c([nH]c4ccccc34)C(C(=O)OC)(c3cc4c(cc3OC)N(C)C3C(O)(C(=O)OC)C(OC(C)=O)C5(CC)C=CCN6CCC43C65)C2)C1 (stereo not given)
inactive: [1] 103 % of control | [2] 102 % of control | [3] 108 % of control | [4] 103 % of control | [5] 112 % of control | dose: 2.0 mg/kg/injection, vehicle: suspension in saline 102 % of control

COc1cccc2c1C(=O)c1c(O)c3c(c(O)c1C2=O)C[C@@](O)(C(=O)CO)C[C@@H]3OC1CC(N)C(O)C(C)O1 (stereo not given in full)
inactive: dose: 0.12 mg/kg/injection, vehicle: saline 94 % of control and 96 % of control and 98 % of control | dose: 0.13 mg/kg/injection, vehicle: saline 102 % of control | dose: 0.5 mg/kg/injection, vehicle: water 95 % of control and 100 % of control | dose: 1.0 mg/kg/injection, vehicle: water 88 % of control | dose: 2.0 mg/kg/injection, vehicle: water 90 % of control and 123 % of control | dose: 4.0 mg/kg/injection, vehicle: water 112 % of control

COc1cc2c(ccc3c4cc(OC)c(OC)cc4c[n+](C)c23)cc1O
inactive: [7] 111 % of control | [8] 113 % of control
